Where two headings read alike, the source gives them in different places. Peptide text beside a SMILES is read from it. * marks the point of attachment. Cbz = O=C(OCc1ccccc1)*; CH2F = FC*
What was measured:
[1] = target: QPP (Homo sapiens, UniProt Q9UHL4); experiment: AlaProAFC cleavage by PBMC cytosolic preparation (QPP peptidase activity); assay type: biochemical; conditions: for QPP inhibition (inhibitory profile): comparison with DPIV profile
[2] = target: DPIV (Homo sapiens, UniProt P27487); conditions: cited from earlier work
[3] = tested on: purified T-cells (CD4+/CD8+); experiment: VbP-induced death of purified resting T-cells; assay type: cell-based, human; conditions: for effect on VbP-mediated T-cell death: added with VbP, non-cycling T-cells
From the text: (§1) Methods. […] Sorted cell populations were >90% pure.

[4] = tested on: CD19+ B cells; experiment: VbP-induced death of B cells; assay type: cell-based, human
[5] = tested on: CD11b+ monocytes; experiment: VbP-induced death of monocytes; assay type: cell-based, human
[6] = tested on: activated PBMC; experiment: Induced death of activated PBMC (PHA blasts) and long term cultured cells; assay type: cell-based, human
From the text: as §1

[7] = tested on: phosphatidylserine (PS) on the surface of cells; experiment: FITC-annexin V detection of surface phosphatidylserine; assay type: cell-based, human; conditions: cells treated with VbP
[8] = tested on: peripheral blood mononuclear cells (PBMC); experiment: Cell death in overnight cultures of freshly isolated PBMC; conditions: for number of dead cells / PCD induction in resting PBMC cultures: compared to media alone
[9] = tested on: serum-starved, G0 phase fibroblasts; experiment: Apoptosis of serum-starved G0 fibroblasts transfected with QPP transgene; assay type: cell-based; conditions: compared to non-QPP transfected fibroblasts
From the text: The role of QPP in protecting quiescent (non-cycling) cells from death was confirmed in fibroblasts transfected with a QPP transgene sequence using standard techniques.

[10] = PBMC cytosolic preparation, high concentrations

DPIV, sequence (P27487 whole entry): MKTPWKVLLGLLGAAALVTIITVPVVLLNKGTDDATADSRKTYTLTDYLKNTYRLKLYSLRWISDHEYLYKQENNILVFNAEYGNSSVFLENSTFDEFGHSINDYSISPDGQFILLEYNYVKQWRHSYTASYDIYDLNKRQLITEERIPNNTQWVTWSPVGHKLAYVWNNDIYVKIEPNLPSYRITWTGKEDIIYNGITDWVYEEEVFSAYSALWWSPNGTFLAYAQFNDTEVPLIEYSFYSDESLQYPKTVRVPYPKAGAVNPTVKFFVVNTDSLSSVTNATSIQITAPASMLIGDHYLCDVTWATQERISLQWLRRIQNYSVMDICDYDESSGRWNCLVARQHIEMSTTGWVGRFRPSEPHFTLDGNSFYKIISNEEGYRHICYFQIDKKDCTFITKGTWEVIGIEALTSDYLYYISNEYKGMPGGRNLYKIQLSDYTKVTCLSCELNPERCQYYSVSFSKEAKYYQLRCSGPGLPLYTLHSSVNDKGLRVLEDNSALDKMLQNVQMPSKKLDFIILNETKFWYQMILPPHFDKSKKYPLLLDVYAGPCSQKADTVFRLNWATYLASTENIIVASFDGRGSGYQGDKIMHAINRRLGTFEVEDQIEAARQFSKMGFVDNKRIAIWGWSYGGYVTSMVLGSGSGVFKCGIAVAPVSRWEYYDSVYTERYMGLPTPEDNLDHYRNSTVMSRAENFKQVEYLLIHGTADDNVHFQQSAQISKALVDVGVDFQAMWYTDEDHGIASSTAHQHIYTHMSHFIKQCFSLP

Molecule: NC(=O)CI [IAA]
- inhibition of cytosolic AlaProAFC cleaving enzymatic activity [1]: partially inhibited

Molecule: NC(CCCCNC(=O)OCc1ccc([N+](=O)[O-])cc1)C(=O)N1CCCCC1 (stereo not shown) [Lys-piperidide, NO2-Z-Lys-piperidide]
- QPP inhibition (inhibitory profile) [1]: did inhibit QPP at higher concentrations than Lys-thiazolidide
- DPIV inhibition [2]: does not inhibit DPIV

Molecule: NC(CCCCNC(=O)OCc1ccc([N+](=O)[O-])cc1)C(=O)N1CCSC1 (stereo not shown) [Lys-thiazolidide, NO2-Z-Lys-thiazolidide]
- QPP inhibition (inhibitory profile) [1]: most potent inhibitors

Molecule: CCN1C(=O)C=CC1=O [NEM]
- inhibition of cytosolic AlaProAFC cleaving enzymatic activity [1]: partially inhibited

Molecule: O=S(=O)(F)Cc1ccccc1 [PMSF]
- inhibition of cytosolic AlaProAFC cleaving enzymatic activity [1, 10]: partially inhibited

Molecule: Cc1ccc(S(=O)(=O)N[C@@H](CCCCN)C(=O)CCl)cc1 [TLCK]
- inhibition of cytosolic AlaProAFC cleaving enzymatic activity [1]: partially inhibited

Molecule: CC(C)[C@H](N)C(=O)N1CCC[C@H]1B(O)O [VbP, Val-boroPro]
- T-cell death in CD26+ versus CD26- resting T-cell subpopulations ([3]; CD26+ and CD26- resting T-cells): to the same degree
- susceptibility to VbP-induced death ([3]; purified T-cells (CD4+/CD8+) vs whole PBMC): greater sensitivity than whole PBMC
- susceptibility to VbP-induced death [4]: resistant
- susceptibility to VbP-induced death [5]: resistant
- susceptibility of activated PBMC to induced PCD [6]: resistant
- susceptibility to VbP-induced PCD after return to non-cycling phase (G0) ([6]; activated PBMC maintained in culture until G0): regain sensitivity
- amount of PS on the surface of cells (FITC-annexin V) [7]: time-dependent increase
- inhibition of cytosolic AlaProAFC cleaving enzymatic activity ([1]; PBMC cytosolic preparation (110,000 g supernatant)): inhibited
- QPP inhibition (inhibitory profile) [1]: most potent inhibitors
- time at which dead cells were apparent after addition ([8]; PBMC cultures): 4 h
- time to maximal death ([8]; PBMC cultures): ≤ 24 h
- maximal death ([8]; PBMC cultures, within 24 hours): about 70%
- number of dead cells / PCD induction in resting PBMC cultures [8]: striking increase in the number of dead cells

Molecule: COC(=O)C[C@H](NC(=O)[C@H](C)NC(=O)[C@@H](NC(=O)OCc1ccccc1)C(C)C)C(=O)CF [Z-VADfmk] (Cbz-Val-Ala-Asp(OMe)-CH2F)
- effect on VbP-mediated T-cell death [3]: blocked

Molecule: N=C(N)c1ccccc1 [benzamidine]
- inhibition of cytosolic AlaProAFC cleaving enzymatic activity [1, 10]: partially inhibited

Molecule: CC(C)[C@@H](N)C(=O)N1CCC[C@H]1B(O)O [d-Val-d-boroPro]
- number of dead cells / PCD induction in resting PBMC cultures [8]: inactive

Molecule: CC(=O)N[C@@H](CSC(=O)[C@]1([C@@H](O)C(C)C)NC(=O)[C@H](C)[C@@H]1O)C(=O)O [lactacystin]
- effect on VbP-mediated T-cell death [3]: neither the anti-Fas mAb M3 nor lactacystin had any effect
- susceptibility of activated PBMC to induced PCD [6]: susceptible
- number of dead cells / PCD induction in resting PBMC cultures [8]: does not induce PCD

Molecule: (Z)-Ala-[CF═C]-Pro-NHO-Bz(4NO2) [L-125]
- QPP inhibition (inhibitory profile) [1]: did not inhibit QPP

Molecule: recombinant QPP: recombinant quiescent cell post-prolyl dipeptidase polypeptide expressed from a transgene in fibroblasts
- apoptosis of quiescent fibroblasts [9]: inhibited apoptosis

— patent publication US6485955B1, “Quiescent cell dipeptidyl peptidase: a novel cytoplasmic serine protease” (The Trustees of Tufts University, priority 1997, dated 2002)
